For orientation: IC50 means the concentration at which inhibition is half-maximal.

Molecules are shown by their SMILES. Counter-ions that a name gives are not always drawn.

Experimental findings from patent publication US20220226299A1 (NIPPON CHEMIPHAR CO., LTD., priority 2019, published 2022) are described below.

T1 sequence (O95180 whole entry): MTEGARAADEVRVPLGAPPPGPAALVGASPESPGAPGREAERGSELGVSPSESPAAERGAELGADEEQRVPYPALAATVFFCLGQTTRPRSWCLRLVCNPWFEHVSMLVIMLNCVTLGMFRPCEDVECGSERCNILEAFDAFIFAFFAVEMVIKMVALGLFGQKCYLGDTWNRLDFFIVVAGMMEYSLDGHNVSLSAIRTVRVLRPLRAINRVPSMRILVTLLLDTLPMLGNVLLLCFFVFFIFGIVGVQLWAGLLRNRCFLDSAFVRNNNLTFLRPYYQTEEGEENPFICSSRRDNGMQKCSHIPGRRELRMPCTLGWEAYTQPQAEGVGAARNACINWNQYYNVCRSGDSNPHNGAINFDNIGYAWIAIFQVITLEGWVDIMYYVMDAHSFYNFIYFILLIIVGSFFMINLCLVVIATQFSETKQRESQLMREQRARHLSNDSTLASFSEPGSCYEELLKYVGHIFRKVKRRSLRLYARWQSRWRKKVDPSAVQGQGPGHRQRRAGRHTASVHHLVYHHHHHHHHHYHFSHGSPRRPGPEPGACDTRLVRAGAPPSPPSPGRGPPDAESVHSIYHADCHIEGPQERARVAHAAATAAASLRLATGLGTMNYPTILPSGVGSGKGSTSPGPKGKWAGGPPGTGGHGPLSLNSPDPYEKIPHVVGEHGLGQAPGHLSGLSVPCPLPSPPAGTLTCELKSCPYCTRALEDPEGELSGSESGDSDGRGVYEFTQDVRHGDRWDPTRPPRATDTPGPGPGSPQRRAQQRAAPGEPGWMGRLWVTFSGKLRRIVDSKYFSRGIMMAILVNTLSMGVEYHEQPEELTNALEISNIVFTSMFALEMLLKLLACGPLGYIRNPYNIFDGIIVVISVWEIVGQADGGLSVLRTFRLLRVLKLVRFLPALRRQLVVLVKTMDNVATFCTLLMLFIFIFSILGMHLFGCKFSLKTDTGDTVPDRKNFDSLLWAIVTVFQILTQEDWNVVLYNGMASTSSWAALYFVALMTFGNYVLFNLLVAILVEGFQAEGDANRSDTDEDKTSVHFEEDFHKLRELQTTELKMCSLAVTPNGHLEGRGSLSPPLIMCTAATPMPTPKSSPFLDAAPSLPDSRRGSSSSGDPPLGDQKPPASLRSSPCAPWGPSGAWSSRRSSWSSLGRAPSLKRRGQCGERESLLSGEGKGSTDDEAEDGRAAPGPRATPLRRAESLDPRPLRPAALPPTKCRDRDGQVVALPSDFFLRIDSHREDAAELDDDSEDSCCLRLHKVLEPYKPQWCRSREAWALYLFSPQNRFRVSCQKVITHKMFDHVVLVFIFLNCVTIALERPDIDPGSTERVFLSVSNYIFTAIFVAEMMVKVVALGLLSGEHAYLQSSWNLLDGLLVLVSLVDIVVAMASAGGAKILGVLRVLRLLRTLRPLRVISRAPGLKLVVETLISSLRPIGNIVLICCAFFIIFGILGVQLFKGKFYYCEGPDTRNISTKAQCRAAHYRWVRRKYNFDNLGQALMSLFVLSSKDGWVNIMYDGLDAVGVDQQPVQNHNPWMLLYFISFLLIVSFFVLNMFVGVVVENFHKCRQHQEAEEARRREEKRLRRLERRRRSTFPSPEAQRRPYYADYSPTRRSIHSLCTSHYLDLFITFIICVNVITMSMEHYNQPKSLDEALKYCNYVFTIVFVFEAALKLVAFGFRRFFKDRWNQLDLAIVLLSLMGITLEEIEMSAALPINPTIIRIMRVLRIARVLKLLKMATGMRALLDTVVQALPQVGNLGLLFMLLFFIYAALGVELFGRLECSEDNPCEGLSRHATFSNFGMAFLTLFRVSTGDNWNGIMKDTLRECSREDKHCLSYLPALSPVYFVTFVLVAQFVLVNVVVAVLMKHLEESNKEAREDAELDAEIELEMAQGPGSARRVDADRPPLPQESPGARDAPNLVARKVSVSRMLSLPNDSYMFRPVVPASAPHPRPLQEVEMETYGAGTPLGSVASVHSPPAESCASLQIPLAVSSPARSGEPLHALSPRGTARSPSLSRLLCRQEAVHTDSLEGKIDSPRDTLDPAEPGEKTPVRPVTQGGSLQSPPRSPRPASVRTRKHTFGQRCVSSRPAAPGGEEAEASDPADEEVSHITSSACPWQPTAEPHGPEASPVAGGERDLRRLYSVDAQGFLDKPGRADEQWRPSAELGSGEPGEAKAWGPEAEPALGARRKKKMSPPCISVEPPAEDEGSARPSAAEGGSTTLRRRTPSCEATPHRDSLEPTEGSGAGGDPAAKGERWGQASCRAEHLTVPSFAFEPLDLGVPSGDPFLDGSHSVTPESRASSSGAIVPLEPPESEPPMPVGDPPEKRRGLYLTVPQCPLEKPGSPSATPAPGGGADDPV

This test concerns the target T1, human Cav3.2 channels (Homo sapiens, UniProt O95180).
T1 construct: human Cav3.2 channel ORF (Open Reading Frame) gene; expressed in transfected cells; host or cells: HEK293 cells (ATCC No. CRL-1573), pcDNA3.1(+) plasmid
The experiment in a line: T-type calcium blocking action: intracellular calcium (Fluo-4 AM fluorescence) in HEK293 cells steadily expressing human Cav3.2 channels. The following applies: HEK293 cells expressing human Cav3.2; KCl-stimulated calcium influx, Fluo-4 fluorescence; Tables 1 to 3. The format is cell-based. An outline of the steps: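 Fluo-4 AM-loaded stable HEK293 cells were preincubated 15 min at RT with compound (0.1% DMSO final) in choline-based buffer (pH 7.3). Gramicidin was added, then KCl-induced calcium influx was read at 485/510 nm for 10 s. Percent block came from peak rise over baseline, and IC50 from log-concentration plots.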
In the case of `O=C(Cc1ccc(C2CC2)cc1)N[C@@H]1CCN(c2ccc(C(F)(F)F)nc2)C1` [Example 121, (R)-2-(4-cyclopropylphenyl)-N-(1-(6-(trifluoromethyl)pyridin-3-yl)pyrrolidin-3-yl)acetamide], the IC50 is 120 nM.

Regarding `CC(C)c1ccc(CC(=O)N[C@@H]2CCN(c3ccc(C(F)(F)F)s3)C2)cc1` [Example 122, (R)-2-(4-isopropylphenyl)-N-(1-(5-(trifluoromethyl)thiophen-2-yl)pyrrolidin-3-yl)acetamide], the IC50 amounted to 1500 nM.

On to `O=C(Cc1ccc(C(F)(F)F)cc1)N[C@@H]1CCN(c2cncc(C(F)(F)F)c2)C1` [Example 123, (R)-2-(4-(trifluoromethyl)phenyl)-N-(1-(5-(trifluoromethyl)pyridin-3-yl)pyrrolidin-3-yl)acetamide], for which the IC50 is 44 nM.

Take `O=C(Cc1ccc2cc[nH]c2c1)N[C@@H]1CCN(c2cncc(C(F)(F)F)c2)C1` [Example 124, (R)-2-(1H-indol-6-yl)-N-(1-(5-(trifluoromethyl)pyridin-3-yl)pyrrolidin-3-yl)acetamide]: the IC50 stood at 62 nM.

On to `O=C(Cc1ccc(C2CC2)cc1)N[C@@H]1CCN(c2cncc(OCC(F)(F)F)c2)C1` [Example 126, (R)-2-(4-cyclopropylphenyl)-N-(1-(5-(2,2,2-trifluoroethoxy)pyridin-3-yl)pyrrolidin-3-yl)acetamide], for which the IC50 amounted to 830 nM.

Regarding `O=C(Cc1ccc(C2CC2)cc1)N[C@@H]1CCN(c2cc(OCC(F)(F)F)ccn2)C1` [Example 127, (R)-2-(4-cyclopropylphenyl)-N-(1-(4-(2,2,2-trifluoroethoxy)pyridin-2-yl)pyrrolidin-3-yl)acetamide], the IC50 came to 1100 nM.

As to `O=C(Cc1ccc(C2CC2)cc1)N[C@@H]1CCCN(c2cncc(C(F)(F)F)c2)C1` [Example 129, (R)-2-(4-cyclopropylphenyl)-N-(1-(5-(trifluoromethyl)pyridin-3-yl)piperidin-3-yl)acetamide], the IC50 was 550 nM.

Regarding `CC(C)(O)c1ccc(CC(=O)N[C@@H]2CCN(c3cncc(C(F)(F)F)c3)C2)cc1` [Example 131, (R)-2-(4-(2-hydroxypropan-2-yl)phenyl)-N-(1-(5-(trifluoromethyl)pyridin-3-yl)pyrrolidin-3-yl)acetamide], the 50% inhibitory concentration (IC50) worked out at 200 nM.

On to `Cc1nccnc1-c1ccc(CC(=O)N[C@@H]2CCN(c3cncc(C(F)(F)F)c3)C2)cc1` [Example 132, (R)-2-(4-(3-methylpyrazin-2-yl)phenyl)-N-(1-(5-(trifluoromethyl)pyridin-3-yl)pyrrolidin-3-yl)acetamide], for which the concentration for half-maximal inhibition (IC50) was found to be 190 nM.

In the case of `Cc1ncoc1-c1ccc(CC(=O)N[C@@H]2CCN(c3cncc(C(F)(F)F)c3)C2)cc1` [Example 133, (R)-2-(4-(4-methyloxazol-5-yl)phenyl)-N-(1-(5-(trifluoromethyl)pyridin-3-yl)pyrrolidin-3-yl)acetamide], the 50% inhibitory concentration (IC50) came to 55 nM.

As for `O=C(Cc1ccc(C2CC2)cc1)N[C@@H]1CCN(c2cc(C(F)(F)F)c[n+]([O-])c2)C1` [Example 134A, (R)-3-(3-(2-(4-cyclopropylphenyl)acetamido)pyrrolidin-1-yl)-5-(trifluoromethyl)pyridine 1-oxide], the IC50 came to 930 nM.

As for `O=C(Cc1ccc(C2CC2)cc1)N[C@@H]1CC[N+]([O-])(c2cncc(C(F)(F)F)c2)C1` (stereo partly drawn) [Example 134B, (3R)-3-(2-(4-cyclopropylphenyl)acetamido)-1-(5-(trifluoromethyl)pyridin-3-yl)pyrrolidine 1-oxide], the IC50 came to 1000 nM.

Take `CC(C)(C(=O)N[C@@H]1CCN(c2cncc(C(F)(F)F)c2)C1)c1ccc(C2CC2)cc1` [Example 135, (R)-2-(4-cyclopropylphenyl)-2-methyl-N-(1-(5-(trifluoromethyl)pyridin-3-yl)pyrrolidin-3-yl)propanamide]: the IC50 came to 230 nM.

Consider `O=C(Cc1ccc(C2CC2)cc1)N[C@@H]1CCN(c2cc(F)cc(C(F)(F)F)c2)C1` [Example 136, (R)-2-(4-cyclopropylphenyl)-N-(1-(3-fluoro-5-(trifluoromethyl)phenyl)pyrrolidin-3-yl)acetamide], for which the IC50 came to 1500 nM.

For the molecule `CN(C)C(C(=O)N[C@@H]1CCN(c2cncc(C(F)(F)F)c2)C1)c1ccc(C2CC2)cc1` (stereo partly drawn) [Example 138, 2-(4-cyclopropylphenyl)-2-(dimethylamino)-N—((R)-1-(5-(trifluoromethyl)pyridin-3-yl)pyrrolidin-3-yl)acetamide hydrochloride], the 50% inhibitory concentration (IC50) was determined as 690 nM.

In the case of `Cn1ccc2cc(CC(=O)N[C@@H]3CCN(c4cncc(C(F)(F)F)c4)C3)ccc21` [Example 139, (R)-2-(1-methyl-1H-indol-5-yl)-N-(1-(5-(trifluoromethyl)pyridin-3-yl)pyrrolidin-3-yl)acetamide], the IC50 is 5.4 nM.

Consider `O=C(Cc1ccc(C(F)(F)F)cc1C(F)(F)F)N[C@@H]1CCN(c2cncc(C(F)(F)F)c2)C1` [Example 140, (R)-2-(2,4-bis(trifluoromethyl)phenyl)-N-(1-(5-(trifluoromethyl)pyridin-3-yl)pyrrolidin-3-yl)acetamide], for which the IC50 turned out to be 1100 nM.

For the molecule `O=C(Cc1ccc(C(F)(F)F)cc1F)N[C@@H]1CCN(c2cncc(C(F)(F)F)c2)C1` [Example 141, (R)-2-(2-fluoro-4-(trifluoromethyl)phenyl)-N-(1-(5-(trifluoromethyl)pyridin-3-yl)pyrrolidin-3-yl)acetamide], the IC50 worked out at 180 nM.

Take `Cn1ncc2cc(CC(=O)N[C@@H]3CCN(c4cncc(C(F)(F)F)c4)C3)ccc21` [Example 142, (R)-2-(1-methyl-1H-indazol-5-yl)-N-(1-(5-(trifluoromethyl)pyridin-3-yl)pyrrolidin-3-yl)acetamide]: the half-inhibitory concentration (IC50) turned out to be 9.4 nM.

In the case of `Cn1ncc2cc(CC(=O)N[C@@H]3CCN(c4nc(C(F)(F)F)cs4)C3)ccc21` [Example 143, (R)-2-(1-methyl-1H-indazol-5-yl)-N-(1-(4-(trifluoromethyl)thiazol-2-yl)pyrrolidin-3-yl)acetamide], the IC50 stood at 120 nM.

In the case of `CC1(C)CN(c2ccc(CC(=O)N[C@@H]3CCN(c4cncc(C(F)(F)F)c4)C3)cc2)CCO1` [Example 145, (R)-2-(4-(2,2-dimethylmorpholino)phenyl)-N-(1-(5-(trifluoromethyl)pyridin-3-yl)pyrrolidin-3-yl)acetamide], the IC50 came out at 130 nM.

With `O=C(Cc1ccc(-n2cccn2)cc1)N[C@@H]1CCN(c2cncc(C(F)(F)F)c2)C1` [Example 146, (R)-2-(4-(1H-pyrazol-1-yl)phenyl)-N-(1-(5-(trifluoromethyl)pyridin-3-yl)pyrrolidin-3-yl)acetamide], the IC50 was determined as 23 nM.

As to `C[C@@]1(NC(=O)Cc2ccc(N3CCOCC3)cc2)CCN(c2cncc(C(F)(F)F)c2)C1` [Example 147, (R)—N-(3-methyl-1-(5-(trifluoromethyl)pyridin-3-yl)pyrrolidin-3-yl)-2-(4-morpholinophenyl)acetamide], the 50% inhibitory concentration (IC50) stood at 170 nM.

`C[C@@]1(NC(=O)Cc2ccc(C3CC3)cc2)CCN(c2cncc(C(F)(F)F)c2)C1` [Example 148, (R)-2-(4-cyclopropylphenyl)-N-(3-methyl-1-(5-(trifluoromethyl)pyridin-3-yl)pyrrolidin-3-yl)acetamide]: the IC50 was 200 nM.

Regarding `O=C(Cc1ccc(N2C3CCC2COC3)cc1)N[C@@H]1CCN(c2cncc(C(F)(F)F)c2)C1` [Example 149, 2-(4-(3-Oxa-8-azabicyclo[3.2.1]octan-8-yl)phenyl)-N—((R)-1-(5-(trifluoromethyl)pyridin-3-yl)pyrrolidin-3-yl) acetamide], the concentration for half-maximal inhibition (IC50) was determined as 69 nM.

For the molecule `O=C(Cc1ccc(N2C3CCC2COC3)cc1)N[C@@H]1CCN(c2ccc(C(F)(F)F)nc2)C1` [Example 150, 2-(4-(3-Oxa-8-azabicyclo[3.2.1]octan-8-yl)phenyl)-N—((R)-1-(6-(trifluoromethyl)pyridin-3-yl)pyrrolidin-3-yl)acetamide], the IC50 turned out to be 400 nM.

With `O=C(Cc1ccc2ocnc2c1)N[C@@H]1CCN(c2ccc(C(F)(F)F)nc2)C1` [Example 151, (R)-2-(benzo[d]oxazol-5-yl)-N-(1-(6-(trifluoromethyl)pyridin-3-yl)pyrrolidin-3-yl)acetamide], the IC50 was found to be 2700 nM.

As to `O=C(Cc1ccc2ocnc2c1)N[C@@H]1CCN(c2cncc(C(F)(F)F)c2)C1` [Example 152, (R)-2-(benzo[d]oxazol-5-yl)-N-(1-(5-(trifluoromethyl)pyridin-3-yl)pyrrolidin-3-yl)acetamide], the IC50 turned out to be 1300 nM.

In the case of `Cc1nc2cc(CC(=O)N[C@@H]3CCN(c4cncc(C(F)(F)F)c4)C3)ccc2o1` [Example 153, (R)-2-(2-methylbenzo[d]oxazol-5-yl)-N-(1-(5-(trifluoromethyl)pyridin-3-yl)pyrrolidin-3-yl)acetamide], the IC50 is 570 nM.

On to `Cc1nc2cc(CC(=O)N[C@@H]3CCN(c4ccc(C(F)(F)F)nc4)C3)ccc2o1` [Example 154, (R)-2-(2-methylbenzo[d]oxazol-5-yl)-N-(1-(6-(trifluoromethyl)pyridin-3-yl)pyrrolidin-3-yl)acetamide], for which the IC50 is 1000 nM.

For `O=C(Cc1ccc(N2C[C@@H]3CC[C@H]2CO3)cc1)N[C@@H]1CCN(c2cncc(C(F)(F)F)c2)C1` [Example 155, 2-(4-((1S,4S)-2-oxa-5-azabicyclo[2.2.2]octan-5-yl)phenyl)-N—((R)-1-(5-(trifluoromethyl)pyridin-3-yl)pyrrolidin-3-yl)acetamide], the IC50 was found to be 75 nM.

As to `O=C(Cc1ccc(N2C[C@@H]3CC[C@H]2CO3)cc1)N[C@@H]1CCN(c2ccc(C(F)(F)F)nc2)C1` [Example 156, 2-(4-((1S,4S)-2-oxa-5-azabicyclo[2.2.2]octan-5-yl)phenyl)-N—((R)-1-(6-(trifluoromethyl)pyridin-3-yl)pyrrolidin-3-yl)acetamide], the IC50 came to 1300 nM.
